Tests used:
Experiment in all cases: relative viability (nuclei count vs DMSO), 5 days (fraction); higher = more cells survive
Tanzisertib + Trametinib = compound: O[C@H]1CC[C@H](Nc2ncc3nc(Nc4c(F)cc(F)cc4F)n([C@H]4CCOC4)c3n2)CC1 [Tanzisertib] + CC(=O)Nc1cccc(-n2c(=O)n(C3CC3)c(=O)c3c(Nc4ccc(I)cc4F)n(C)c(=O)c(C)c32)c1 [Trametinib] (partner 0.02 µM)
Method in brief: (§1)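 One day after seeding in 1536-well plates, lung cancer cell lines were dosed by pin tool. Dosing was either single-drug or a fixed anchor-drug dose plus five library-drug doses (not always all listed) in √10 steps. After 5 days, nuclei were stained in one fix-and-stain step and counted on 4× images, and relative viability is the nuclei count of treated wells over that of vehicle wells, given as the median of duplicate plates.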

[1] = compound: C1CNCCC1C2=CC(=NN2)C3=CC=NC=C3 + CC(C)C[C@H](NC(=O)[C@H](Cc1ccccc1)NC(=O)c1cnccn1)B(O)O [Bortezomib] (partner 0.002 µM)
Method in brief: as §1

[2] = compound: C1CNCCC1C2=CC(=NN2)C3=CC=NC=C3 + CCNC(=O)c1noc(-c2cc(C(C)C)c(O)cc2O)c1-c1ccc(CN2CCOCC2)cc1 [Luminespib] (partner 0.01 µM)
Method in brief: as §1

[3] = compound: C1CNCCC1C2=CC(=NN2)C3=CC=NC=C3 + CS(=O)(=O)N1CCN(Cc2cc3nc(-c4cccc5[nH]ncc45)nc(N4CCOCC4)c3s2)CC1 [Pictilisib] (partner 1 µM)
Method in brief: as §1

Cell Line	relative viability (Tanzisertib + Trametinib; first compound 0.08 µM)	relative viability (Tanzisertib + Trametinib; first compound 0.253 µM)	relative viability (Tanzisertib + Trametinib; first compound 0.8 µM)	relative viability (Tanzisertib + Trametinib; first compound 2.53 µM)	relative viability (Tanzisertib + Trametinib; first compound 8 µM)	relative viability ([1]; first compound 0.08 µM)	relative viability ([1]; first compound 0.8 µM)	relative viability ([1]; first compound 2.53 µM)	relative viability ([1]; first compound 8 µM)	relative viability ([2]; first compound 0.8 µM)	relative viability ([2]; first compound 2.53 µM)	relative viability ([2]; first compound 8 µM)	relative viability ([3]; first compound 0.08 µM)	relative viability ([3]; first compound 0.8 µM)	relative viability ([3]; first compound 2.53 µM)	relative viability ([3]; first compound 8 µM)	relative viability ([2]; first compound 0.08 µM)
NCI-H23	0.389	0.357	0.418	0.367	0.419	0.729	0.866	1.1	1.24	0.212	0.213	0.211	0.447	0.533	0.648	0.601	
NCI-H1651	0.851	0.83	0.775	0.832	0.85	0.907	0.923	1.02	0.949	1.11	0.807	0.838	0.637	0.711	0.601	0.664	0.719
NCI-H1975	0.396	0.422	0.345	0.349	0.341	0.396	0.423	0.479	0.369	0.214	0.193	0.254	0.325	0.305	0.331	0.307	0.166
COR-L23	0.717	0.627	0.7	0.616	0.547	0.872	0.993	0.95	0.981	0.838	0.64	0.671	0.824	0.903	0.924	0.832	0.481
HCC-44	1.17	1.08	1.09	0.979	1.06	0.911	0.93	1	0.886	1.58	1.32	1.06	0.585	0.648	0.716	0.593	0.923
LOU-NH91	0.824	0.811	0.773	0.756	0.71	0.52	0.503	0.484	0.498	0.339	0.334	0.399	0.545	0.521	0.522	0.49	0.368
NCI-H441	0.567	0.452	0.456	0.429	0.388		0.764	0.609	0.269	0.312	0.309	0.444	0.462	0.455	0.428	0.491	0.332
NCI-H647	0.702	0.47	0.524	0.528	0.418	0.935	0.796	1.07	0.86	0.21	0.157	0.101	0.388		0.427	0.381	0.151
NCI-H1915	0.31	0.306	0.296	0.268	0.258	1	0.977	0.932	0.934	0.876	0.791	0.734	1.03	0.885	0.965	0.906	0.746
NCI-H1734	0.652	0.669	0.709	0.681	0.721	0.97	1.04	1.21	1.03	0.201	0.195	0.219	0.427	0.451	0.469	0.452	0.183
NCI-H1993	0.638	0.428	0.55	0.499	0.522	1.02	0.999	1.21	1.34	0.918	0.79	0.981	0.802	0.806	0.933	0.623	0.748
NCI-H2405	0.766	0.559	0.565	0.52	0.44	0.94	0.658	1.02	1	0.584	0.875	0.544	0.442	0.441	0.373	0.366	0.616
HOP-62	0.389	0.341	0.435	0.412	0.346	0.479	0.84	1.15	0.728	1.06	0.837	0.847	0.654	0.816	0.791	0.717	0.999
NCI-H650	0.975	0.946	1.06	0.983	0.874	0.803	0.689	0.949	0.734	0.705	0.958	0.744	0.897	0.992	0.939	0.904	0.65
BEN	1.06	1.09	1.04	1.08	1.09	0.724	0.592	0.852	0.96	0.282	0.341	0.344	0.518	0.587	0.555	0.722	0.215
SW 1573	0.555	0.514	0.547	0.521	0.456	0.75	1.22	1.11	1.12	0.215	0.244	0.189	0.516	0.533	0.496	0.509	
ChaGo-K-1	0.902	0.896	0.821	0.91	0.832	0.991	1.31	1.02	0.984	0.555	0.709	0.568	0.51	0.978	0.431	0.681	0.512

Cell Line	relative viability (Tanzisertib + Trametinib; first compound 0.08 µM)	relative viability (Tanzisertib + Trametinib; first compound 0.253 µM)	relative viability (Tanzisertib + Trametinib; first compound 0.8 µM)	relative viability (Tanzisertib + Trametinib; first compound 2.53 µM)	relative viability (Tanzisertib + Trametinib; first compound 8 µM)	relative viability ([1]; first compound 0.08 µM)	relative viability ([1]; first compound 0.8 µM)	relative viability ([1]; first compound 2.53 µM)	relative viability ([1]; first compound 8 µM)	relative viability ([2]; first compound 0.8 µM)	relative viability ([2]; first compound 2.53 µM)	relative viability ([2]; first compound 8 µM)	relative viability ([3]; first compound 0.08 µM)	relative viability ([3]; first compound 0.8 µM)	relative viability ([3]; first compound 2.53 µM)	relative viability ([3]; first compound 8 µM)	relative viability ([2]; first compound 0.08 µM)
NCI-H1755	0.791	0.831	0.779	0.697	0.719	0.991	0.943	1.04	0.932		0.417	0.64	0.423	0.412	0.419	0.372	0.301
NCI-H2023	0.571	0.538	0.517	0.439	0.499	0.793	0.958	1.24	0.983	0.878	0.867	0.832	0.251	0.228	0.27	0.295	0.709
LC-2-ad	1	0.915	0.973	0.932	0.877	1.07	1.52	0.994	0.944	1.13	1.13	0.987	0.43	0.469	0.625	0.48	
NCI-H1666	0.842	0.839	0.968	0.862	0.908	0.865	0.724	0.959	0.962	1.11	1.05	1.01	0.463	0.335	0.641	0.463	0.921
201T	0.731	0.756	0.701	0.806	0.764	1.06	1.07	1.08	1.1	1.04	1.13	1.01	0.724	0.664	0.7	0.681	1.03
NCI-H2009	0.316	0.274	0.274	0.247	0.21	1.04	0.989	1.09	0.99	1.09	1.02	1.01	0.81	0.859	0.872	0.859	0.995
NCI-H2228	0.581	0.34	0.806	0.362	0.259	0.929	1.22	1.07	0.863	0.162	0.189	0.161	0.388	0.483	0.409	0.544	0.121
LU99A	0.632	0.573	0.591	0.531	0.559	1.1	1.26	1.35	1.08	0.235	0.248	0.252	0.321	0.366	0.316	0.307	0.3
NCI-H1437	0.588	0.481	0.512	0.558	0.43	0.495	0.607	0.552	0.462	1.16	1.09	1.14	0.443	0.485	0.45	0.528	1.1
EKVX	0.487	0.301	0.368	0.347	0.295	1.21	0.585	1.07	1.04	0.609	0.987	0.8	0.42	0.516	0.42	0.447	0.855
NCI-H520	0.734	0.724	0.814	0.776	0.646	0.365	0.558	0.559	0.573	0.196	0.214	0.177	0.277	0.324	0.293	0.351	0.213
LCLC-97TM1	0.236	0.227	0.234	0.172	0.172	0.668	0.666	0.796	0.444	0.916	0.962	0.713	0.275	0.241	0.283	0.175	0.734
NCI-H3122	0.262	0.201	0.273	0.245	0.237	0.989	1.04	1.04	0.965	0.114	0.1	0.104	0.59	0.549	0.694	0.587	0.109
PC-14	0.886	0.673	0.805	0.666	0.295	0.897	0.951	0.945	0.789	0.162	0.18	0.151	0.716	0.763	0.842	0.661	0.151
EPLC-272H	0.318	0.279	0.322	0.317	0.297	0.971	0.913	0.965	0.993	0.22	0.406	0.206	0.384	0.361	0.285	0.337	0.281
A-427	0.813	0.745	0.742	0.736	0.751	1.03	0.955	1.06	0.935	1.2	0.908	0.92	0.707	0.891	0.685	0.8	0.789

Reference: the supplement of paper PMC10307832
